From patent US6150414A, “Compositions and methods for treating viral infections” (priority 1992, dated 2000)

System: Friend Leukemia Virus
Test: Inhibition of Friend Leukemia Virus-induced splenomegaly in mice, compounds intraperitoneally 24 hours after virus (Example 1(a))
Format: in vivo, BALB/c mice
Details: dose 150 mg (so in the source); Table III second set
Outline: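 BALB/c mice inoculated i.v. with 10^6 FFU Friend virus (spleen homogenate); compounds given i.p. 24 h later at 100 μg once, or 50, 100, 200 μg or 2×100 μg (second dose 24–48 h after first), two mice per group. Spleens weighed at day 10; percent inhibition from average spleen weights relative to negative and positive controls.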

Cc1cc(O)c2c(=O)c3c(O)cc(O)c4c5c(O)cc(O)c6c(=O)c7c(O)cc(C)c8c1c2c(c34)c(c78)c65 [hypericin, Hypericin]
Average Spleen Weight: 0.7707
